Data reported in patent publication US9266954B2, “Methods for modulating D1-D2 dopamine receptor coupling and function” (Centre for Addiction and Mental Health, priority 2008, dated 2016).
Ends that are not written are not given here.

Columns and labels:
[1] = biological target: T1, HEK-293T cells co-expressing D1 and D2 receptors (Homo sapiens, UniProt P14416+P21728); experiment: Fluo-4AM fluorescence measurement of intracellular Ca^2+ in HEK-293T cells co-expressing D1 and D2 receptors; assay type: cell-based; conditions: pretreatment 10 μM
T1 construct: expressed in transfected cells; host or cells: HEK-293T
T1 sequence (P21728 whole entry): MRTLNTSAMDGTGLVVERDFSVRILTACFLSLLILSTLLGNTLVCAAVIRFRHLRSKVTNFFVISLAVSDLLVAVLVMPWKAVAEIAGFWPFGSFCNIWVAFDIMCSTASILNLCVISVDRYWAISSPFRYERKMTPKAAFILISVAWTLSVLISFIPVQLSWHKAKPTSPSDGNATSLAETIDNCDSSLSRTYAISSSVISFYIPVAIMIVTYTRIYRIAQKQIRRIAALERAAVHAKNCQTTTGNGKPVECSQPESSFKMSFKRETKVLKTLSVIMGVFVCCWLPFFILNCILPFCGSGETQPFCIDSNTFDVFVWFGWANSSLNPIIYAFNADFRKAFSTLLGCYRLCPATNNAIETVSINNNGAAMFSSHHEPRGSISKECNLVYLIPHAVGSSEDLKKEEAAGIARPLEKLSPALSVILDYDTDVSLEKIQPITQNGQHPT
T1 sequence (P14416 whole entry): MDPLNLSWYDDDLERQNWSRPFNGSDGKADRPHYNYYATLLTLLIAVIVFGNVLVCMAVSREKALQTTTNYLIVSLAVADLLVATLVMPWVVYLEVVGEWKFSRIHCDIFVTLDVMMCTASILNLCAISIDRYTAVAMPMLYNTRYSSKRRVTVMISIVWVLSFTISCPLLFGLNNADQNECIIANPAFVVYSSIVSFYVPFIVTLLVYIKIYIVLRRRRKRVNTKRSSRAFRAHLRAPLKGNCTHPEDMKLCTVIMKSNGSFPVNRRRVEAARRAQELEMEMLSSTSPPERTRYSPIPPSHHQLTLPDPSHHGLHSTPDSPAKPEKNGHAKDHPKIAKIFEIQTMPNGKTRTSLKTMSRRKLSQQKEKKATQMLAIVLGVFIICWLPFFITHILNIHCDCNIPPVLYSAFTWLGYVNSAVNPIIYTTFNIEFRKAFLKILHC
Excerpt: Fluorescence values were monitored using a PerkinElmer multiwell plated fluorometer, collected at 3-s intervals for 150 s. (A.F.U.: arbitrary fluorescence units).
To investigate the functional implication of the D1-D2 coupling, we examined the ability of this complex to promote Gq/11 signaling as indexed by changes in intracellular Ca^2+ levels^83-85.

D2 receptors = conditions: rat, in vivo
D2R = experiment: Western blot of D2R levels in striata of chronically treated rats; assay type: in vivo; conditions: rat striata; 10 mg/kg/day subcutaneously for 14 days
D1-D2 coupling = conditions: rat, in vivo, sc, 10 mg/kg/day
D1R = experiment: Western blot of D1R levels in striata of chronically treated rats; assay type: in vivo; conditions: rat striata; 10 mg/kg/day subcutaneously for 14 days
D1 receptors = biological target: T2, D1 receptors (Rattus norvegicus, UniProt P18901); experiment: GST-fusion protein affinity pull-down of D1 receptor from solubilized rat striatum; assay type: binding; conditions: FIG. 1C-1E
T2 construct: D1 receptor was specifically pulled down by GST-D2IL3-L in detergent extracts of rat striatum; from tissue; host or cells: rat striatum, detergent-solubilized
T2 sequence (P18901 whole entry, the tested form may be a part): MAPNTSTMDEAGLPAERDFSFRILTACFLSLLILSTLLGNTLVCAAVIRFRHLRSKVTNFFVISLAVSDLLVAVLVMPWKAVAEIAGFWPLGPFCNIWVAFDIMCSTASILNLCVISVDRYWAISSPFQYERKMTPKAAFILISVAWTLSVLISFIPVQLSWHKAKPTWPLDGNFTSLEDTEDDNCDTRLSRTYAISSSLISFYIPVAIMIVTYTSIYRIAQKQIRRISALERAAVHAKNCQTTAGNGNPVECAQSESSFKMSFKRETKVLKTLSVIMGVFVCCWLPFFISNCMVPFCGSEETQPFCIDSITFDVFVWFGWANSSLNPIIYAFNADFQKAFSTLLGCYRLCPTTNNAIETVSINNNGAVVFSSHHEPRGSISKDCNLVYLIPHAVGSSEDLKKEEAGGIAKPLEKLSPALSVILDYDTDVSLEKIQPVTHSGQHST
Excerpt: (§1) To confirm previous reports of a D1-D2 receptor complex we used rat striata in co-immunoprecipitation (co-IP) experiments. […] In an attempt to define the structural basis for the observed D1-D2 coupling, we carried out affinity purification using GST (glutathione-S-transferase)-fusion proteins encoding the D1CT and the third intracellular loop (D1IL3), since both D1CT: A332-T446 and D1IL3: R219-K272 contain putative consensus sequences for receptor phosphorylation, desensitization and potential binding sites for various proteins important for signalling (e.g. G proteins, NMDA receptor NR1, NR2A subunits)^81-82. […] To locate the interacting site on D2R, GST-fusion proteins encoding IL3 from both the D2 short (D2S) and D2 Long (D2L) (GST-D2IL3-L: K211-Q373, GST-D2IL3-S:K211-[…]) were used in affinity purification assays. […] Since the D2L and D2S are differentiated by the additional 29 amino-acid within the third intracellular loop, the fact that only D2L but not D2S interacts with D1R made us suspect that this specific 29 amino-acid may contain the D1-D2 interacting site.

D1 tail = biological target: T3, D1 tail (Homo sapiens, UniProt P21728); experiment: in vitro binding assay with S^35-D1 tail probe; conditions: FIG. 1F
T3 construct: D1CT A332-T446
T3 sequence (P21728 332-446): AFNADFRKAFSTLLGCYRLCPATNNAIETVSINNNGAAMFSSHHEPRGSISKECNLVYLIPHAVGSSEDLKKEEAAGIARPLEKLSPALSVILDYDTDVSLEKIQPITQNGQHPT
Excerpt: as §1

D1-D2 interaction = biological target: T4, D1-D2 interaction (Rattus norvegicus, UniProt P18901); experiment: competitive co-immunoprecipitation of D1 receptor with D2 receptor in rat striatum; assay type: binding; conditions: preincubation, FIG. 1G
T4 construct: from tissue; host or cells: rat striatum
T4 sequence (P18901 whole entry): as the sequence (P18901 whole entry, the tested form may be a part) above
Excerpt: The ability of D1 receptor to co-immunoprecipitate with D2 receptor is inhibited by the addition of GST-D2IL3-29-2 in a concentration dependent manner;
as §1

Molecule	block of the Ca^2+ increase induced by co-activation with 10 μM SKF81297 and 10 μM quinpirole [1]	pull-down of D1 receptors (D1 receptors)	binding of S^35-D1 tail probe (D1 tail)	further results
O=C(CCCN1CCC(O)(c2ccc(Cl)cc2)CC1)c1ccc(F)cc1 [haloperidol]	–	–	–	direct immunoprecipitated D2 receptors (D2 receptors): remain unchanged
CN(C)CCCN1c2ccccc2CCc2ccccc21 [imipramine]	–	–	–	D2R levels (Western blot) vs control rats (D2R): no significant change; D1-D2 coupling (co-immunoprecipitation) (D1-D2 coupling): decrease in D1-D2 coupling; D1R levels (Western blot) vs control rats (D1R): no significant change
GST-D2LIL3-29-1: GST-fusion protein encoding D2LIL3-29-1: G242-V255 (GNCTHPEDMKLCTV; cysteine pairing not given here; also: GST fusion protein)	–	not	not	–
GST-D2LIL3-29-2: GST-fusion protein encoding D2LIL3-29-2: I256-V270 (IMKSNGSFPVNRRRV; also: GST fusion protein)	–	can successfully pull-down D1R	specifically bound	inhibition of D1-D2 interaction as indexed by co-immunoprecipitation (D1-D2 interaction): inhibits the D1-D2 interaction as indexed by the co-immunoprecipitation in a concentration dependent manner

Further lines, with some results ahead:

block of the Ca^2+ increase induced by co-activation with 10 μM SKF81297 and 10 μM quinpirole [1]	pull-down of D1 receptors (D1 receptors)	binding of S^35-D1 tail probe (D1 tail)	Molecule	further results
inhibited the increase in Ca^2+ levels	–	–	COc1ccc2c(c1)CC[C@@H]1[C@@H]2CC[C@]2(C)[C@@H](NCCCCCCN3C(=O)C=CC3=O)CC[C@@H]12 [U73122]	–
blocked	–	–	CCN1CCC[C@H]1CNC(=O)c1c(O)c(Cl)cc(Cl)c1OC [raclopride]	–
